# Reference: patent US20070099822A1, “Regulation of tissue mineralization and phosphate metabolism by asarm peptides” (priority 2003, published 2007)
# “And” between values parts separate entries of the source, which are not always exact repeats. Equal entries are not always repeated. “Also recorded” adds a separate entry of the source. Where two headings read alike, the source gives them in different places. Square brackets hold non-standard residues; d marks the D form. Peptide text beside a SMILES is read from it. pS = N[C@@H](COP(=O)(O)O)C(=O)O
# Key:
# MEPE-PHEX interaction = target: T1, MEPE-PHEX interaction (Homo sapiens, UniProt P78562); assay: Surface plasmon resonance, peptide solution competition of secPHEX-MEPE binding; settings: for inhibition of MEPE-PHEX interaction: peptide pre-mixed with secPHEX, MEPE-RGD up to 85 μM
# T1 construct: to generate a soluble, secreted form of PHEX; made in house; host or cells: secPHEX: mammalian cells (gift, University of Montreal); MEPE: S. frugiperda insect cells
# T1 sequence (P78562 46-749 limits assumed): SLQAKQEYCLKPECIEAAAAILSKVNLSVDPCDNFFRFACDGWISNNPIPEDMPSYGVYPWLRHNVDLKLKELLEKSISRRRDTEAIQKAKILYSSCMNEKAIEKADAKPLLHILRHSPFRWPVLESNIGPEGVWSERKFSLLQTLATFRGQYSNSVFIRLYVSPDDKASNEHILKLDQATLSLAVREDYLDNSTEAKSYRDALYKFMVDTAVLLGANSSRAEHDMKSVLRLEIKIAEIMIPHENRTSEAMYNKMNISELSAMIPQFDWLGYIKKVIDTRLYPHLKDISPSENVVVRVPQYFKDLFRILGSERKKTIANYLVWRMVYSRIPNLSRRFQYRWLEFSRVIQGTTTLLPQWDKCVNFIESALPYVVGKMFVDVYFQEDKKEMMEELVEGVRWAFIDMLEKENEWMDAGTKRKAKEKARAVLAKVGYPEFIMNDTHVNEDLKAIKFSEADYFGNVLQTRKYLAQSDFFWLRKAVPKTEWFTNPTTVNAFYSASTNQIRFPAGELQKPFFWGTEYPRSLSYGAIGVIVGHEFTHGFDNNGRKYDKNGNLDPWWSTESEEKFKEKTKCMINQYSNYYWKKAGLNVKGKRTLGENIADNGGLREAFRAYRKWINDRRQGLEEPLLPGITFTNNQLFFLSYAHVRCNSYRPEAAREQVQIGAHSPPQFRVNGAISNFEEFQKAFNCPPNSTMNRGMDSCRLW
# From the text: Surface Plasmon Resonance: Synthetic peptides & competitive PHEX-MEPE binding studies. For these experiments CM-5 chips containing flow-cells immobilized with MEPE, PHEX and IgG ligands at 6000 RU were used. Just prior to SPR injection, stock solution of specific-peptide (as defined for each experiment; see Table 1), and dissolved in analyte buffer (HBS-P—Zn) […] The following equation was used to compute KDapp values: RU=Bmax/inhib×(peptide(μM))/KDapp+(peptide(μM)). The Bmax/inh value represents the maximal percentage inhibition change in RU (i.e., PHEX-MEPE binding) relative to the “non-peptide” control (0% inhibition of binding), using a constant analyte flow-solution of secPHEX of 250 nM against immobilized MEPE ligand at 6000 RU. […] The control MEPE-RGD peptide had no effect on MEPE-PHEX interactions.
# male ICR Swiss mice = assay: Example VI: subcutaneous PO4-ASARM-peptide or etidronate, calcein fluorescence and Sanderson osteoid staining; assay type: in vivo; settings: for increase of osteoid layer thickness relative to vehicle / percentage quenching of calvarial calcein fluorescence relative to vehicle / calvariae calcein fluorescence / calvarial osteoid relative thickness (Sanderson staining): etidronate 10 mg/kg/day; for calvariae calcein fluorescence: s.c. 12 days, vehicle 1100.5; for calvarial osteoid relative thickness (Sanderson staining): vehicle 2.3
# Description: Subcutaneous administration of PO4-ASARM-peptide, etidronate (EHDP), and calcein. Three separate groups of male ICR Swiss mice (4-5 weeks) were subcutaneously injected once a day (9:00AM), for 12 days except for days 6 and 7 with 50 μL solutions of either (1) Eitidronate (EHDP) (10 mg/kg/day); (2) PO4-ASARM-peptide (2 mg/kg/day); or (3) vehicle consisting of 5 mM HEPES pH 7.4/150 mM NaCL/0.1% BSA. The synthetic PO4-ASARM-peptide was dissolved in vehicle (1.0 mg/mL). Etidronate was first dissolved in 150 mM NaCl and then buffered to pH 7.5 with 1M NaOH to give a 5 mg/mL solution. The 10 mg/kg/day doses of etidronate have previously been reported to inhibit mineralization in rats and were used as positive controls (Trechsel, et al., Am J Physiol 232(3):E298-305, 1977; Bonjour, et al., Am J Physiol 229(2):402-8, 1975). All three groups were subcutaneously injected with calcein (20 mg/kg/day) on days 3, 5, […]. The degree of calcein fluorescence and/or fluorescence-quenching is an indicator of mineralization status (see next section). The calcein injections when given were administered 1 h after the daily injections of PO4-ASARM-peptide, EHDP or vehicle. Animals were then terminated humanely and calvariae plus femurs/tibia were fixed in 70% ethanol (non-decalcified). After fluorescence imaging (see FIG. 35) calvariae were processed in plastic and stained with Sanderson's stain (see below). Five animals per group were used for statistical analysis of fluorescence quenching and histological Sanderson staining.
# Calcein fluorescence in mice calvariae, hind-limbs & fluor-imager analysis of mineralization. A Bio-Rad (Hercules, Calif.) FluorImager^max fluorescent imager was used to simultaneously image all the samples from each of the 3 groups (15 animals; five animals per group). This consisted of 10 tibia/femurs and 5 calvariae per group. Samples were placed on top of the FluorImager plate contained within a light-tight box. Ultra-violet light was used to generate calcein-mediated epi-fluorescence and the fluorescent-image was captured on a −40° C., peltier-cooled, 1,340×1040 pixel CCD resolution, CCD digital-camera. Quantitation of fluorescence was carried out using Quantity-1 (Bio-Rad, Hercules, Calif.) fluorescence-software. Pixel saturation was prevented by internal software calibration and exposure adjustment. All fluorescence readings were thus accurately quantitative and non-saturating. Photo-micrographic UV fluorescent analysis of calvarial cross sections embedded in plastic and mounted as slides (<100 micrometer sections) was also undertaken and a description of the fixation and processing is given in the next section.
# Sanderson-staining and fluorescence detection of calvarial osteoid & mineralized bone. Staining of non-decalcified calvarial sections was performed using the method described by Sanderson and Bachus (Staining technique to differentiate mineralized and demineralized bone in ground sections, J Histotechnol 20(2): 119-122, 1997). This technique provides differential staining between unmineralized osteoid and mineralized bone. Prior to staining, calvariae were dissected and attached tissue removed. Calvariae were then placed in 70% ethanol for further fixation as described by Sanderson and Bachus (supra). After fixing and processing undecalcified calvariae were embedded in plastic (LR-white acrylic resin (London Resin Co., Reading, England)) as previously described (Garrett, et al., Selective inhibitors of the osteoblast proteasome stimulate bone formation in vivo and in vitro, J Clin Invest 111(11):1771-1782, 2003). Plastic embedded sections were ground to <100 micrometers using a specialized grinding-pestle as described by Donath and Breuner (A method for the study of undecalcified bones and teeth with attached soft tissues. The Sage-Schliff (sawing and grinding) technique, J Oral Pathol 11(4):318-26, 1982). […]
# mice [1] = assay: Example III: subcutaneous injection once a day for 12 days, mineralization and phosphate handling; assay type: in vivo; settings: etidronate 10 mg/kg/day, ASARM peptide 2 mg/kg/day
# Description: (§1) FIGS. 14a and 14b show the Fractional Excretion of Phosphate (FEP) in two different experiments. In the experiment shown in FIG. 14a, each of three groups of mice was treated with one injection per day, over two weeks, of either: (a) vehicle alone, (b) etidronate (10 mg/kg/day), or (c) ASARM peptide (2 mg/kg/day). In the experiment show in FIG. 14b, each of four groups of mice was treated with two injections per day, over three weeks, of either: (a) vehicle alone, (b) etidronate (60 mg/kg/day), (c) ASARM (1.34 mg/kg/day; “ASARM-low”), or (d) ASARM (4.00 mg/kg/day; “ASARM-high”).
# Three groups of 5 mice each received a subcutaneous injection once a day for 12 days. […] Calcein was given at 20 mg/kg/day on days 3, 5, 8, and 10 to allow visualization. The first group of mice were given an injection of vehicle only. The second group of mice were given etidronate at 10 mg/kg/day. The third group of mice were given ASARM peptide at 2 mg/kg/day.
# mice [2] = assay: Example II: subcutaneous injection twice a day for three weeks, serum and urine; assay type: in vivo
# Description: Four groups of 7 mice were injected subcutaneously twice a day for three weeks. The first group received vehicle only as a control, the second group received etidronate at 60 mg/kg/day, the third group received ASARM peptide at 1.3 mg/kg/day (“low ASARM”), and the fourth group received ASARM peptide at 4 mg/kg/day (“high ASARM”). Calcein/tetracycline was administered to the animals 4 days and 2 days before the end of the protocol for visualization purposes.
# as §1
compound,measurement,setting,value
"GSGYTDLQERGDNDISPFSGDGQPF (Homo sapien) [MEPE-RGD, 15, negative control, reference compound]",inhibition of MEPE-PHEX interaction,MEPE-PHEX interaction,did not competitively inhibit; also recorded: no effect
same,inhibition of MEPE-PHEX interaction,MEPE-PHEX interaction; listed as MEPE-RGD-peptide,no inhibition
"N=C(N)NCCC[C@H](N)C(=O)N[C@@H](CC(=O)O)C(=O)N[C@@H](CC(=O)O)C(=O)N[C@@H](CO)C(=O)N[C@@H](CO)C(=O)N[C@@H](CCC(=O)O)C(=O)N[C@@H](CO)C(=O)N[C@@H](CO)C(=O)N[C@@H](CC(=O)O)C(=O)N[C@@H](CO)C(=O)NCC(=O)N[C@@H](COP(=O)(O)O)C(=O)N[C@@H](CO)C(=O)N[C@@H](COP(=O)(O)O)C(=O)N[C@@H](CCC(=O)O)C(=O)N[C@@H](COP(=O)(O)O)C(=O)N[C@@H](CC(=O)O)C(=O)NCC(=O)N[C@@H](CC(=O)O)C(=O)O [PO4-ASARM-peptide, RDDSSESSDSG(Sp)S(Sp)E(Sp)DGD] (H-RDDSSESSDSG[pS]S[pS]E[pS]DGD-OH)",tibiae-femurs fluorescence-signal reduction relative to vehicle,male ICR Swiss mice; PO4-ASARM-peptide 2 mg/kg/day,44.5%
same,increase of osteoid layer thickness relative to vehicle,male ICR Swiss mice; PO4-ASARM-peptide 2 mg/kg/day,3.5 fold
same,percentage quenching of calvarial calcein fluorescence relative to vehicle,male ICR Swiss mice; PO4-ASARM-peptide 2 mg/kg/day,62%
same,calvariae calcein fluorescence,male ICR Swiss mice; PO4-ASARM-peptide 2 mg/kg/day,568.7 fluorescent intensity units
same,calvarial osteoid relative thickness (Sanderson staining),male ICR Swiss mice; PO4-ASARM-peptide 2 mg/kg/day,8.0
same,tibiae-femurs calcein fluorescent intensity,"male ICR Swiss mice; PO4-ASARM-peptide 2 mg/kg/day, vehicle 268.52",148.9
same,"Bmax/inh, maximal percentage-inhibition of MEPE-PHEX binding","MEPE-PHEX interaction; 250 nM secPHEX, MEPE 6000 RU",68%
same,Kd,"MEPE-PHEX interaction; 250 nM secPHEX, MEPE 6000 RU, read-out: apparent KDapp, solution competition of MEPE-PHEX binding",15 µM
same,Kd,"MEPE-PHEX interaction; apparent KDapp, solution competition of secPHEX-MEPE binding, 250 nM secPHEX, MEPE 6000 RU (FIG. 34 legend), heading: apparent KDapp, solution competition of secPHEX-MEPE binding",15 µM
same,inhibition of MEPE-PHEX interaction,MEPE-PHEX interaction,able to inhibit; also recorded: dramatic dose-dependent inhibition
"CC(O)(P(=O)(O)O)P(=O)(O)O [etidronate, reference compound]",Phosphate Excretion Index (PEI),mice [1],lower PEI
same,increase in urinary calcium levels compared to the control,mice [1],75.9%
same,inhibition in tooth mineralization,mice [1],53.2%
same,inhibition of mineralization in femur,mice [1],15.8%
same,inhibition of mineralization in tibia/femur,mice [1],19.2%
same,mineralization of calvariae and long bones,mice [1],greatly inhibited
same,renal phosphorous clearance vs vehicle,mice [1],significantly less phosphate clearance
same,serum calcium vs control,mice [1],slightly higher level
same,serum phosphate,mice [1],induce hyperphosphatemia
same,tubular reabsorption of phosphate vs vehicle,mice [1],higher
same,urinary phosphate excreted in a 24-hour period vs control,mice [1],far less phosphate
same,urine creatinine,mice [1],significant elevation; also recorded: significantly elevated
same,urine phosphate,mice [1],induced hypophosphaturia
same,Fractional Excretion of Phosphate (FEP) vs vehicle,mice [1]; s.c. once a day 12 days,significantly lower
same,inhibition of mineralization of calvariae,"mice [1]; s.c. once a day 12 days, calcein",48.4%
same,increase of osteoid layer thickness relative to vehicle,male ICR Swiss mice; PO4-ASARM-peptide 2 mg/kg/day,2.35 fold
same,percentage quenching of calvarial calcein fluorescence relative to vehicle,male ICR Swiss mice; PO4-ASARM-peptide 2 mg/kg/day,48% and 48.4%
same,calvariae calcein fluorescence,male ICR Swiss mice; PO4-ASARM-peptide 2 mg/kg/day,417.7 fluorescent intensity units
same,calvarial osteoid relative thickness (Sanderson staining),male ICR Swiss mice; PO4-ASARM-peptide 2 mg/kg/day,5.4
same,lamellar calcein fluorescent layers in calvarial cross-sections,male ICR Swiss mice; four layers visible in vehicle group,complete absence
same,serum phosphate,"mice [2]; etidronate 60 mg/kg/day s.c. twice a day, three weeks, vehicle 9.62",10.04 mg/dL
same,serum calcium vs vehicle,"mice [2]; etidronate 60 mg/kg/day, ASARM 1.3 and 4 mg/kg/day",lower serum calcium levels
same,serum alkaline phosphatase vs vehicle,"mice [2]; etidronate 60 mg/kg/day, ASARM 1.3 and 4 mg/kg/day (both groups)",significantly higher levels
